As a reminder, the IC50 is the midpoint of a concentration-inhibition curve.

The test system of one data set is A/Aichi/2/68 (H3N2). Nature of the data set: microbe, parasite or virus in culture. The class given is cell-based. Particulars: read-out: IC50 ± SD, H3N2.
The subject of data set [1] is Influenza A/Puerto Rico/8/34 (H1N1). The data set is described as follows: microbe, parasite or virus in culture. Particulars: H1N1|PR8, MDCK, read-out: IC50 ± SD, PR8.
The nature of a further data set: in vitro. Particulars: dog.
Data set [2] deals with Influenza A/Puerto Rico/8/34 (H1N1).
For another data set, the system named is SARS-CoV-2. Particulars: read-out: IC50 against SARS-CoV-2, Full-time treatment; cited from earlier work.
Data set [3] concerns influenza A/PR/8/34 (H1N1) virus. Set-up: species or system KM mice. Particulars: mouse, in vivo; for body weight of infected mice: po.
The test system of the next data set is influenza A virus. In kind it is cell-based.
Data set [4] deals with influenza virus A/PR/8/34 (H1N1).
In data set [5] the test system is influenza A/PR/8/34 (H1N1) virus. The class given is cell-based.
For data set [6] the following is noted: mouse, in vivo, po, 10 mg/kg.
Data set [7] has as its system A/Puerto Rico/8/34 (H1N1) influenza virus. The class given is cell-based.
In another data set the target is hemagglutinin (HA) (Influenza A virus, UniProt P03452).
Sequence of hemagglutinin (HA) (P03452 18-342 limits assumed): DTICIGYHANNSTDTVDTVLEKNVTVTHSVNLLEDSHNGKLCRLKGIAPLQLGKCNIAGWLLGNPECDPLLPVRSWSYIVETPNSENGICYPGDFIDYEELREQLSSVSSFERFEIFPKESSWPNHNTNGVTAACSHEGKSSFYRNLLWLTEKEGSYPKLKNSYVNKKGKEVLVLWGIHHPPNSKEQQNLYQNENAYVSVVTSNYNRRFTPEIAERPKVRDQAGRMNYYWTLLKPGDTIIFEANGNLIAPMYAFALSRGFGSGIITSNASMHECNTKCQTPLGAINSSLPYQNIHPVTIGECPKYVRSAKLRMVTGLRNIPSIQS
Sequence of hemagglutinin (HA) (P03452 344-565 limits assumed): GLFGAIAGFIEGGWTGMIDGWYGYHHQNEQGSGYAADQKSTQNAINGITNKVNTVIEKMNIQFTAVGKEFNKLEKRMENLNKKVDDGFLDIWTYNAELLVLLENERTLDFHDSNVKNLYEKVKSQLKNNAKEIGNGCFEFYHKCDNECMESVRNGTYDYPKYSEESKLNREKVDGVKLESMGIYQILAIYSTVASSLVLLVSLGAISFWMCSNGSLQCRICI
For data set [8], the system named is Influenza A/Puerto Rico/8/34 (H1N1). The class given is cell-based, influenza A virus.

Entries after “also recorded” stand apart in the source; their conditions may differ. Read-outs that look alike come from different tables or passages of the source.

On to `C=Cc1c(C)c2cc3nc(c4c5[nH]c(cc6nc(cc1[nH]2)C(C)=C6CC)c(C)c5C(=O)C4)[C@@H](CCC(=O)O)[C@@H]3C` [PPa, pyropheophorbide a, reference compound], for which the IC50 with A/Aichi/2/68 (H3N2) (Influenza A virus, H3N2, MDCK) was found to be 1.23 ± 1.1 µM; in data set [1] it was 0.32 ± 0.28 µM. Moreover, the CC50 in the data set “in vitro” was determined as 140 ± 3.61 µM.
Compound `CC(C)CCC[C@@H](C)[C@H]1CC[C@H]2[C@@H]3CC=C4C[C@@H](OCC(=O)N[C@@H](CCCCN)C(=O)N[C@@H](CCCCN)C(=O)N[C@@H](Cc5c[nH]c6ccccc56)C(=O)N[C@@H](CCCCN)C(N)=O)CC[C@]4(C)[C@H]3CC[C@]12C` [S-KKWK, reference compound] yielded an IC50 in [2] (/Puerto Rico/8/34, 48 h) of 1.85 ± 0.92 µM.
In the case of `CCN(CC)CCCC(C)Nc1ccnc2cc(Cl)ccc12` (centres unmarked) [chloroquine], in the data set on SARS-CoV-2, the IC50 was 10 µM.
On to `CCOC(=O)C1=C[C@@H](OC(CC)CC)[C@H](NC(C)=O)[C@@H](N)C1` [oseltamivir phosphate, reference compound], for which, in data set [3], the “body weight of infected mice” value is “slowly increased”.
protoporphyrin IX [PPIX]: the “antiviral activity with increasing added lipids” value in the data set with influenza A virus is listed as “decreased along with the increase of lipids”. The CC50 came out at 120.8 ± 0.95 µM with Vero-E6 cells and 230 ± 4.53 µM with MDCK cells. Also, the CC90 with MDCK cells was determined as 316 µM. For the same compound, the IC50 in the data set on A/Aichi/2/68 (H3N2) is 1.49 ± 0.66 µM; in data set [4] (read-out: IC50 ± SD, After infection), over 17.8 µM; in [4] (read-out: IC50 ± SD, During infection), 8.87 ± 3.07 µM; in data set [4] (read-out: IC50 ± SD, Pretreatment of cell), over 17.8 µM; in data set [4] (read-out: IC50 ± SD, Pretreatment of virus), 1.88 ± 0.85 µM; in data set [2] (read-out: IC50 ± SD, PR8) it was 1.88 ± 0.85 µM. For the same compound, in data set [3], the “survival rate and mean survival time of infected mice” value is on record as “apparently prolonged; also recorded: apparently increased”. The “body weight of infected mice” value in [3] is listed as “slowly increased”. The “inhibitory effect by time of addition (viral titer in supernatant)” value in data set [5] is “better inhibitory effect”. Besides, in [6], the “time of maximum peak of PPIX in plasma” value is “about 2 h”. Further, in data set [7], the “NP expression (green fluorescence) after treatment” value is recorded as “apparently decreased”. In addition, at hemagglutinin (HA), the “hemagglutinin inhibition (viral adsorption to target cells)” value is on record as “negative results”. Moreover, the “antiviral activity with red light versus no light” value in [8] is “no significant difference”.

(Values after paper PMC7784547 (Bioorganic Chemistry, 2021).)
